Measurements published in patent US20240065988A1, “COMBINED USE OF KETAMINE AND RETIGABINE (EZOGABINE) FOR THE TREATMENT OF PSYCHIATRIC DISORDERS” (Yeda Research and Development Co. Ltd., priority 2021, published 2024).

System: single cells from the ventral hippocampus (vHipp)
Experiment: Single-cell RNA sequencing (scRNA-seq) of the ventral hippocampus after ketamine treatment; differential expression per cell type; on Mean-Ket: unit not given here
[1] = Astrocytes, ketamine 10 mg/kg i.p.
[2] = Astrocytes, ketamine 10 mg/kg i.p. vs saline
[3] = Endothelial, ketamine 10 mg/kg i.p.
[4] = Endothelial, ketamine 10 mg/kg i.p. vs saline

Compound: CNC1(c2ccccc2Cl)CCCCC1=O (racemic) [ketamine, (R,S)-ketamine]
- Change (Aarsd1, Glut Neurons): Down
- Mean-Ket (Aarsd1, Glut Neurons): 1.682
- logFC (Aarsd1, Glut Neurons): −0.119
- Change (Acad9, Glut Neurons): Up
- Mean-Ket (Acad9, Glut Neurons): 1.372
- logFC (Acad9, Glut Neurons): 0.210
- Change (Aire, Glut Neurons): Down
- Mean-Ket (Aire, Glut Neurons): 2.157
- logFC (Aire, Glut Neurons): −0.116
- Change (Akap5, Astrocytes): Down
- Mean-Ket (Akap5, Astrocytes): 4.005
- logFC (Akap5, Astrocytes): −0.219
- Aire Mean-Ket [1]: 2.361
- Aktip Mean-Ket [1]: 1.656
- Atg2a Mean-Ket [1]: 1.418
- Calm1 Mean-Ket [1]: 2.021
- Calm2 Mean-Ket [1]: 1.730
- Capza2 Mean-Ket [1]: 3.001
- Cars2 Mean-Ket [1]: 2.703
- Cep89 Mean-Ket [1]: 2.822
- Cox7a2 Mean-Ket [1]: 1.052
- Elp6 Mean-Ket [1]: 1.701
- Fam193a Mean-Ket [1]: 2.684
- Gje1 Mean-Ket [1]: 0.961
- Gmeb1 Mean-Ket [1]: 2.962
- Hadhb Mean-Ket [1]: 1.956
- Haus8 Mean-Ket [1]: 1.269
- Lztr1 Mean-Ket [1]: 1.556
- Mettl3 Mean-Ket [1]: 2.842
- Mrp19 Mean-Ket [1]: 2.904
- Mterf3 Mean-Ket [1]: 1.289
- Nop58 Mean-Ket [1]: 2.828
- P3h3 Mean-Ket [1]: 2.495
- Parp1 Mean-Ket [1]: 2.675
- Polr2c Mean-Ket [1]: 2.613
- Ppan Mean-Ket [1]: 2.916
- Rfc2 Mean-Ket [1]: 0.929
- Rpap1 Mean-Ket [1]: 1.265
- Sec23ip Mean-Ket [1]: 2.886
- Slc23a1 Mean-Ket [1]: 2.421
- Snf8 Mean-Ket [1]: 2.945
- Sumf2 Mean-Ket [1]: 1.532
- Tecr Mean-Ket [1]: 1.562
- Tuba1b Mean-Ket [1]: 1.065
- Tubb2a Mean-Ket [1]: 0.960
- Uba2 Mean-Ket [1]: 1.413
- Vps8 Mean-Ket [1]: 2.087
- Zcchc4 Mean-Ket [1]: 0.999
- Aire Change [2]: Down
- Aire logFC [2]: −0.106
- Aktip Change [2]: Down
- Aktip logFC [2]: −0.119
- Atg2a Change [2]: Down
- Atg2a logFC [2]: −0.105
- Calm1 Change [2]: Down
- Calm1 logFC [2]: −0.155
- Calm2 Change [2]: Down
- Calm2 logFC [2]: −0.130
- Capza2 Change [2]: Down
- Capza2 logFC [2]: −0.082
- Cars2 Change [2]: Down
- Cars2 logFC [2]: −0.090
- Cep89 Change [2]: Down
- Cep89 logFC [2]: −0.075
- Cox7a2 Change [2]: Down
- Cox7a2 logFC [2]: −0.144
- Elp6 Change [2]: Down
- Elp6 logFC [2]: −0.124
- Fam193a Change [2]: Down
- Fam193a logFC [2]: −0.088
- Gje1 Change [2]: Down
- Gje1 logFC [2]: −0.108
- Gmeb1 Change [2]: Down
- Gmeb1 logFC [2]: −0.074
- Hadhb Change [2]: Down
- Hadhb logFC [2]: −0.103
- Haus8 Change [2]: Down
- Haus8 logFC [2]: −0.116
- Lztr1 Change [2]: Down
- Lztr1 logFC [2]: −0.130
- Mettl3 Change [2]: Down
- Mettl3 logFC [2]: −0.077
- Mrp19 Change [2]: Down
- Mrp19 logFC [2]: −0.074
- Mterf3 Change [2]: Down
- Mterf3 logFC [2]: −0.125
- Nop58 Change [2]: Down
- Nop58 logFC [2]: −0.094
- P3h3 Change [2]: Down
- P3h3 logFC [2]: −0.092
- Parp1 Change [2]: Down
- Parp1 logFC [2]: −0.079
- Polr2c Change [2]: Down
- Polr2c logFC [2]: −0.091
- Ppan Change [2]: Down
- Ppan logFC [2]: −0.074
- Rfc2 Change [2]: Down
- Rfc2 logFC [2]: −0.121
- Rpap1 Change [2]: Down
- Rpap1 logFC [2]: −0.125
- Sec23ip Change [2]: Down
- Sec23ip logFC [2]: −0.086
- Slc23a1 Change [2]: Down
- Slc23a1 logFC [2]: −0.099
- Snf8 Change [2]: Down
- Snf8 logFC [2]: −0.074
- Sumf2 Change [2]: Down
- Sumf2 logFC [2]: −0.127
- Tecr Change [2]: Down
- Tecr logFC [2]: −0.242
- Tuba1b Change [2]: Down
- Tuba1b logFC [2]: −0.115
- Tubb2a Change [2]: Down
- Tubb2a logFC [2]: −0.113
- Uba2 Change [2]: Down
- Uba2 logFC [2]: −0.113
- Vps8 Change [2]: Down
- Vps8 logFC [2]: −0.120
- Zcchc4 Change [2]: Down
- Zcchc4 logFC [2]: −0.112
- Change (Atp5a1, Glut Neurons): Down
- Mean-Ket (Atp5a1, Glut Neurons): 0.832
- logFC (Atp5a1, Glut Neurons): −0.162
- Change (Atp5j2, Glut Neurons): Down
- Mean-Ket (Atp5j2, Glut Neurons): 0.851
- logFC (Atp5j2, Glut Neurons): −0.169
- Change (Atp5j, Glut Neurons): Down
- Mean-Ket (Atp5j, Glut Neurons): 1.199
- logFC (Atp5j, Glut Neurons): −0.230
- Change (Atp6v0e2, Astrocytes): Down
- Mean-Ket (Atp6v0e2, Astrocytes): 1.529
- logFC (Atp6v0e2, Astrocytes): −0.138
- Change (Atp5h, Glut Neurons): Down
- Mean-Ket (Atp5h, Glut Neurons): 1.341
- logFC (Atp5h, Glut Neurons): −0.231
- Change (Atxn2, Glut Neurons): Down
- Mean-Ket (Atxn2, Glut Neurons): 1.752
- logFC (Atxn2, Glut Neurons): −0.131
- Change (Cars2, Glut Neurons): Down
- Mean-Ket (Cars2, Glut Neurons): 2.514
- logFC (Cars2, Glut Neurons): −0.095
- Change (Casc4, Glut Neurons): Down
- Mean-Ket (Casc4, Glut Neurons): 3.269
- logFC (Casc4, Glut Neurons): −0.109
- Change (Ccdc62, Glut Neurons): Down
- Mean-Ket (Ccdc62, Glut Neurons): 1.370
- logFC (Ccdc62, Glut Neurons): −0.131
- Change (Cep89, Glut Neurons): Down
- Mean-Ket (Cep89, Glut Neurons): 2.584
- logFC (Cep89, Glut Neurons): −0.104
- Change (Chn1, Glut Neurons): Down
- Mean-Ket (Chn1, Glut Neurons): 1.219
- logFC (Chn1, Glut Neurons): −0.192
- Change (Chpt1, Glut Neurons): Down
- Mean-Ket (Chpt1, Glut Neurons): 2.768
- logFC (Chpt1, Glut Neurons): −0.092
- Change (Cox6b1, Glut Neurons): Down
- Mean-Ket (Cox6b1, Glut Neurons): 1.063
- logFC (Cox6b1, Glut Neurons): −0.161
- Change (Cpe, Glut Neurons): Down
- Mean-Ket (Cpe, Glut Neurons): 1.060
- logFC (Cpe, Glut Neurons): −0.123
- Change (Cxcr2, Glut Neurons): Down
- Mean-Ket (Cxcr2, Glut Neurons): 2.721
- logFC (Cxcr2, Glut Neurons): −0.098
- Change (D3Ertd254e, Glut Neurons): Down
- Mean-Ket (D3Ertd254e, Glut Neurons): 1.540
- logFC (D3Ertd254e, Glut Neurons): −0.179
- Change (D6Wsu163e, Glut Neurons): Down
- Mean-Ket (D6Wsu163e, Glut Neurons): 2.314
- logFC (D6Wsu163e, Glut Neurons): −0.101
- Change (Dars, Glut Neurons): Down
- Mean-Ket (Dars, Glut Neurons): 1.380
- logFC (Dars, Glut Neurons): −0.115
- Change (Dhx30, Glut Neurons): Down
- Mean-Ket (Dhx30, Glut Neurons): 1.310
- logFC (Dhx30, Glut Neurons): −0.133
- Change (Dpp10, Glut Neurons): Up
- Mean-Ket (Dpp10, Glut Neurons): 1.344
- logFC (Dpp10, Glut Neurons): 0.216
- Change (Eef1akmt3, Astrocytes): Up
- Mean-Ket (Eef1akmt3, Astrocytes): 1.918
- logFC (Eef1akmt3, Astrocytes): 0.336
- Change (Eif4a2, Glut Neurons): Down
- Mean-Ket (Eif4a2, Glut Neurons): 1.524
- logFC (Eif4a2, Glut Neurons): −0.234
- Change (Enah, Glut Neurons): Down
- Mean-Ket (Enah, Glut Neurons): 2.212
- logFC (Enah, Glut Neurons): −0.108
- Akap5 Mean-Ket [3]: 3.573
- Eef1akmt3 Mean-Ket [3]: 1.735
- Ilf2 Mean-Ket [3]: 1.206
- Lrrc17 Mean-Ket [3]: 2.859
- Saa3 Mean-Ket [3]: 1.407
- Slco1a4 Mean-Ket [3]: 1.231
- Vps8 Mean-Ket [3]: 1.667
- Akap5 Change [4]: Down
- Akap5 logFC [4]: −0.447
- Eef1akmt3 Change [4]: Up
- Eef1akmt3 logFC [4]: 0.511
- Ilf2 Change [4]: Up
- Ilf2 logFC [4]: 0.361
- Lrrc17 Change [4]: Down
- Lrrc17 logFC [4]: −0.407
- Saa3 Change [4]: Up
- Saa3 logFC [4]: 0.366
- Slco1a4 Change [4]: Up
- Slco1a4 logFC [4]: 0.415
- Vps8 Change [4]: Down
- Vps8 logFC [4]: −0.398
- Change (Exosc5, Glut Neurons): Down
- Mean-Ket (Exosc5, Glut Neurons): 1.196
- logFC (Exosc5, Glut Neurons): −0.109
- Change (Fam193a, Glut Neurons): Down
- Mean-Ket (Fam193a, Glut Neurons): 2.472
- logFC (Fam193a, Glut Neurons): −0.101
- Change (Fgd4, Glut Neurons): Up
- Mean-Ket (Fgd4, Glut Neurons): 2.397
- logFC (Fgd4, Glut Neurons): 0.144
- Change (Foxr1, Glut Neurons): Down
- Mean-Ket (Foxr1, Glut Neurons): 2.380
- logFC (Foxr1, Glut Neurons): −0.113
- Change (Fubp1, Glut Neurons): Down
- Mean-Ket (Fubp1, Glut Neurons): 2.828
- logFC (Fubp1, Glut Neurons): −0.093
- Change (Furin, Glut Neurons): Down
- Mean-Ket (Furin, Glut Neurons): 1.335
- logFC (Furin, Glut Neurons): −0.132
- Change (Gapdh-ps15, Astrocytes): Down
- Mean-Ket (Gapdh-ps15, Astrocytes): 1.333
- logFC (Gapdh-ps15, Astrocytes): −0.157
- Change (Gclm, Glut Neurons): Down
- Mean-Ket (Gclm, Glut Neurons): 0.984
- logFC (Gclm, Glut Neurons): −0.113
- Change (Gmeb1, Glut Neurons): Down
- Mean-Ket (Gmeb1, Glut Neurons): 2.782
- logFC (Gmeb1, Glut Neurons): −0.087
- Change (Golga3, Astrocytes): Down
- Mean-Ket (Golga3, Astrocytes): 1.515
- logFC (Golga3, Astrocytes): −0.136
- Change (H2-T23, Glut Neurons): Down
- Mean-Ket (H2-T23, Glut Neurons): 1.757
- logFC (H2-T23, Glut Neurons): −0.173
- Change (Hook3, Glut Neurons): Down
- Mean-Ket (Hook3, Glut Neurons): 2.556
- logFC (Hook3, Glut Neurons): −0.089
- Change (Hsd3b2, Glut Neurons): Up
- Mean-Ket (Hsd3b2, Glut Neurons): 1.162
- logFC (Hsd3b2, Glut Neurons): 0.193
- Change (Il17ra, Glut Neurons): Up
- Mean-Ket (Il17ra, Glut Neurons): 1.490
- logFC (Il17ra, Glut Neurons): 0.252
- Change (Ilf2, Astrocytes): Up
- Mean-Ket (Ilf2, Astrocytes): 1.350
- logFC (Ilf2, Astrocytes): 0.295
- Change (Ipo7, Glut Neurons): Down
- Mean-Ket (Ipo7, Glut Neurons): 1.687
- logFC (Ipo7, Glut Neurons): −0.119
- Change (Kcnj16, Glut Neurons): Up
- Mean-Ket (Kcnj16, Glut Neurons): 1.052
- logFC (Kcnj16, Glut Neurons): 0.227
- Change (Kif3a, Glut Neurons): Down
- Mean-Ket (Kif3a, Glut Neurons): 1.198
- logFC (Kif3a, Glut Neurons): −0.141
- Change (Loxl2, Glut Neurons): Down
- Mean-Ket (Loxl2, Glut Neurons): 2.605
- logFC (Loxl2, Glut Neurons): −0.098
- Change (Lrrc17, Astrocytes): Down
- Mean-Ket (Lrrc17, Astrocytes): 3.291
- logFC (Lrrc17, Astrocytes): −0.192
- Change (Lsm8, Glut Neurons): Down
